Source: ChEMBL document CHEMBL3885861, “Open TG-GATES”

Organism: Rattus norvegicus
Experiment: Open TG-GATES - Regimen: Daily Repeat
Format: toxicity, organism-based, Sprague-Dawley
Set-up: regimen Daily Repeat, gender Male, age 6 weeks
Settings: in vivo, po, route gavage; for APTT / Bas / Eos / Fbg / Hb / Ht / Lym / MCH / MCHC / MCV / Mono / Neu / PT / Plat / RBC / Ret / WBC: tissue Blood; for KIDNEY_L / KIDNEY_R / KIDNEY_TOTAL: tissue Kidney; for LIVER: tissue Liver; for A/G / ALP / ALT / AST / BUN / CRE / Ca / Cl / DBIL / GLC / IP / K / LDH / Na / PL / RALB / TBIL / TC / TG / TP / gamma-GTP: tissue Plasma
[1] = 300 mg/kg, 72 h, dose level Middle, time 3 day
[2] = 300 mg/kg, […], dose level Middle, time 7 day
[3] = 300 mg/kg, […], dose level Middle, time 14 day
[4] = 300 mg/kg, […], dose level Middle, time 28 day
[5] = 1000 mg/kg, 72 h, dose level High, time 3 day
[6] = 1000 mg/kg, […], dose level High, time 7 day
[7] = 1000 mg/kg, […], dose level High, time 14 day
[8] = 1000 mg/kg, […], dose level High, time 28 day

## CNC(=C[N+](=O)[O-])NCCSCc1ccc(CN(C)C)o1 [RANITIDINE]
[1]
  TERMINAL_BW: 231.7 g
  APTT: 20.3 s
  Bas: 0%
  Eos: 1%
  Fbg: 234.4 mg/dL
  Hb: 13.5 g/dL
  Ht: 39.4%
  Lym: 78.8%
  MCH: 21.9 pg
  MCHC: 34.3%
  MCV: 63.8 fL
  Mono: 3.2%
  Neu: 15.8%
  PT: 12.4 s
  Plat: 118.4 x10_4/uL
  RBC: 616.4 x10_4/ul
  Ret: 5.1%
  WBC: 112.2 x10_2/uL
  KIDNEY_L: 1 g
  KIDNEY_R: 1 g
  KIDNEY_TOTAL: 2 g
  LIVER: 11.1 g
  A/G: 1.6
  ALP: 966.2 IU/L
  ALT: 43.4 IU/L
  AST: 80 IU/L
  BUN: 14.8 mg/dL
  CRE: 0.4 mg/dL
  Ca: 10.9 mg/dL
  Cl: 104 meq/L
  DBIL: 0.09 mg/dL
  GLC: 196.6 mg/dL
  IP: 7.2 mg/dL
  K: 4.2 meq/L
  LDH: 195.6 IU/L
  Na: 141.2 meq/L
  PL: 142.8 mg/dL
  RALB: 3.4 g/dL
  TBIL: 0.1 mg/dL
  TC: 78.4 mg/dL
  TG: 80 mg/dL
  TP: 5.5 g/dL
  gamma-GTP: 1.8 IU/L
[2]
  TERMINAL_BW: 260.6 g
  APTT: 20.6 s
  Bas: 0%
  Eos: 1%
  Fbg: 227.4 mg/dL
  Hb: 14.1 g/dL
  Ht: 39.9%
  Lym: 83.6%
  MCH: 22 pg
  MCHC: 35.5%
  MCV: 62 fL
  Mono: 1.6%
  Neu: 12.4%
  PT: 12.4 s
  Plat: 130.4 x10_4/uL
  RBC: 644.2 x10_4/ul
  Ret: 4.8%
  WBC: 81.6 x10_2/uL
  KIDNEY_L: 1.1 g
  KIDNEY_R: 1.1 g
  KIDNEY_TOTAL: 2.2 g
  LIVER: 11.7 g
  A/G: 1.5
  ALP: 802.2 IU/L
  ALT: 33.2 IU/L
  AST: 61.4 IU/L
  BUN: 14.6 mg/dL
  CRE: 0.4 mg/dL
  Ca: 10.6 mg/dL
  Cl: 103.8 meq/L
  DBIL: 0.084 mg/dL
  GLC: 211.6 mg/dL
  IP: 7.5 mg/dL
  K: 3.8 meq/L
  LDH: 159.2 IU/L
  Na: 141 meq/L
  PL: 138.2 mg/dL
  RALB: 3.4 g/dL
  TBIL: 0.1 mg/dL
  TC: 72.8 mg/dL
  TG: 83 mg/dL
  TP: 5.7 g/dL
  gamma-GTP: 1.4 IU/L
[3]
  TERMINAL_BW: 309.4 g
  APTT: 19.1 s
  Bas: 0%
  Eos: 0.8%
  Fbg: 239.2 mg/dL
  Hb: 14.6 g/dL
  Ht: 40.6%
  Lym: 76.8%
  MCH: 21.3 pg
  MCHC: 36%
  MCV: 59.2 fL
  Mono: 2.4%
  Neu: 18.4%
  PT: 12.1 s
  Plat: 117.4 x10_4/uL
  RBC: 687.2 x10_4/ul
  Ret: 3.9%
  WBC: 111.2 x10_2/uL
  KIDNEY_L: 1.2 g
  KIDNEY_R: 1.2 g
  KIDNEY_TOTAL: 2.4 g
  LIVER: 13.8 g
  A/G: 1.4
  ALP: 849.4 IU/L
  ALT: 36.4 IU/L
  AST: 70.4 IU/L
  BUN: 17.4 mg/dL
  CRE: 0.5 mg/dL
  Ca: 10.6 mg/dL
  Cl: 103.6 meq/L
  DBIL: 0.098 mg/dL
  GLC: 203.8 mg/dL
  IP: 7.1 mg/dL
  K: 4 meq/L
  LDH: 228.8 IU/L
  Na: 142.2 meq/L
  PL: 151.6 mg/dL
  RALB: 3.5 g/dL
  TBIL: 0.2 mg/dL
  TC: 68.6 mg/dL
  TG: 142.4 mg/dL
  TP: 6 g/dL
  gamma-GTP: 1 IU/L
[4]
  TERMINAL_BW: 391.7 g
  APTT: 21 s
  Bas: 0%
  Eos: 1.2%
  Fbg: 216.2 mg/dL
  Hb: 15.3 g/dL
  Ht: 43.2%
  Lym: 81.4%
  MCH: 20.5 pg
  MCHC: 35.4%
  MCV: 58.1 fL
  Mono: 1.8%
  Neu: 14%
  PT: 12.3 s
  Plat: 110 x10_4/uL
  RBC: 747 x10_4/ul
  Ret: 2.2%
  WBC: 117.7 x10_2/uL
  KIDNEY_L: 1.4 g
  KIDNEY_R: 1.5 g
  KIDNEY_TOTAL: 2.9 g
  LIVER: 16.3 g
  A/G: 1.3
  ALP: 642.2 IU/L
  ALT: 34.6 IU/L
  AST: 60.2 IU/L
  BUN: 18 mg/dL
  CRE: 0.5 mg/dL
  Ca: 10.5 mg/dL
  Cl: 102.8 meq/L
  DBIL: 0.1 mg/dL
  GLC: 200 mg/dL
  IP: 6.9 mg/dL
  K: 3.6 meq/L
  LDH: 112 IU/L
  Na: 141.2 meq/L
  PL: 138.4 mg/dL
  RALB: 3.4 g/dL
  TBIL: 0.2 mg/dL
  TC: 64.6 mg/dL
  TG: 125.6 mg/dL
  TP: 6.1 g/dL
  gamma-GTP: 1 IU/L
[5]
  TERMINAL_BW: 237.1 g
  APTT: 20.1 s
  Bas: 0%
  Eos: 1%
  Fbg: 231.6 mg/dL
  Hb: 13.6 g/dL
  Ht: 39.8%
  Lym: 78.4%
  MCH: 21.5 pg
  MCHC: 34.1%
  MCV: 63.1 fL
  Mono: 3%
  Neu: 16%
  PT: 12 s
  Plat: 117.3 x10_4/uL
  RBC: 631.4 x10_4/ul
  Ret: 4.8%
  WBC: 85 x10_2/uL
  KIDNEY_L: 1 g
  KIDNEY_R: 1 g
  KIDNEY_TOTAL: 2 g
  LIVER: 12 g
  A/G: 1.6
  ALP: 907.8 IU/L
  ALT: 41.2 IU/L
  AST: 69.4 IU/L
  BUN: 14.8 mg/dL
  CRE: 0.4 mg/dL
  Ca: 11 mg/dL
  Cl: 103.6 meq/L
  DBIL: 0.098 mg/dL
  GLC: 198.4 mg/dL
  IP: 8 mg/dL
  K: 4 meq/L
  LDH: 216.6 IU/L
  Na: 140.6 meq/L
  PL: 148.4 mg/dL
  RALB: 3.4 g/dL
  TBIL: 0.2 mg/dL
  TC: 80 mg/dL
  TG: 107.4 mg/dL
  TP: 5.6 g/dL
  gamma-GTP: 1.4 IU/L
[6]
  TERMINAL_BW: 264.9 g
  APTT: 19.6 s
  Bas: 0%
  Eos: 0.8%
  Fbg: 216.8 mg/dL
  Hb: 13.9 g/dL
  Ht: 39.1%
  Lym: 82.2%
  MCH: 21.7 pg
  MCHC: 35.5%
  MCV: 61.2 fL
  Mono: 1.6%
  Neu: 12.8%
  PT: 12.5 s
  Plat: 121.8 x10_4/uL
  RBC: 639.4 x10_4/ul
  Ret: 5%
  WBC: 99 x10_2/uL
  KIDNEY_L: 1.1 g
  KIDNEY_R: 1.2 g
  KIDNEY_TOTAL: 2.3 g
  LIVER: 12.3 g
  A/G: 1.5
  ALP: 852.4 IU/L
  ALT: 37.2 IU/L
  AST: 65.4 IU/L
  BUN: 16.8 mg/dL
  CRE: 0.4 mg/dL
  Ca: 10.7 mg/dL
  Cl: 103.6 meq/L
  DBIL: 0.088 mg/dL
  GLC: 224.4 mg/dL
  IP: 7.8 mg/dL
  K: 3.7 meq/L
  LDH: 169.6 IU/L
  Na: 140.6 meq/L
  PL: 137.2 mg/dL
  RALB: 3.3 g/dL
  TBIL: 0.1 mg/dL
  TC: 76.8 mg/dL
  TG: 82.4 mg/dL
  TP: 5.5 g/dL
  gamma-GTP: 0.8 IU/L
[7]
  TERMINAL_BW: 314.9 g
  APTT: 18.9 s
  Bas: 0%
  Eos: 1%
  Fbg: 234.2 mg/dL
  Hb: 14.5 g/dL
  Ht: 40.3%
  Lym: 77.8%
  MCH: 21.2 pg
  MCHC: 36.1%
  MCV: 58.7 fL
  Mono: 2.4%
  Neu: 18%
  PT: 12.1 s
  Plat: 118.7 x10_4/uL
  RBC: 686 x10_4/ul
  Ret: 4.3%
  WBC: 87.7 x10_2/uL
  KIDNEY_L: 1.2 g
  KIDNEY_R: 1.2 g
  KIDNEY_TOTAL: 2.4 g
  LIVER: 14.2 g
  A/G: 1.4
  ALP: 785 IU/L
  ALT: 37.2 IU/L
  AST: 62.8 IU/L
  BUN: 17.6 mg/dL
  CRE: 0.5 mg/dL
  Ca: 10.5 mg/dL
  Cl: 103 meq/L
  DBIL: 0.08 mg/dL
  GLC: 193 mg/dL
  IP: 7.4 mg/dL
  K: 4.2 meq/L
  LDH: 205.8 IU/L
  Na: 141.8 meq/L
  PL: 137.8 mg/dL
  RALB: 3.5 g/dL
  TBIL: 0.1 mg/dL
  TC: 66.4 mg/dL
  TG: 104 mg/dL
  TP: 5.8 g/dL
  gamma-GTP: 1.2 IU/L
[8]
  TERMINAL_BW: 379.9 g
  APTT: 19.8 s
  Bas: 0%
  Eos: 1.2%
  Fbg: 234.2 mg/dL
  Hb: 15.5 g/dL
  Ht: 43.3%
  Lym: 77.2%
  MCH: 20.1 pg
  MCHC: 35.9%
  MCV: 56.2 fL
  Mono: 1.8%
  Neu: 18.6%
  PT: 12.2 s
  Plat: 113 x10_4/uL
  RBC: 769.8 x10_4/ul
  Ret: 2.2%
  WBC: 104.7 x10_2/uL
  KIDNEY_L: 1.4 g
  KIDNEY_R: 1.4 g
  KIDNEY_TOTAL: 2.8 g
  LIVER: 15.4 g
  A/G: 1.3
  ALP: 562.8 IU/L
  ALT: 38.8 IU/L
  AST: 61 IU/L
  BUN: 17.2 mg/dL
  CRE: 0.5 mg/dL
  Ca: 10.5 mg/dL
  Cl: 102.2 meq/L
  DBIL: 0.094 mg/dL
  GLC: 198.6 mg/dL
  IP: 7.2 mg/dL
  K: 3.8 meq/L
  LDH: 114.2 IU/L
  Na: 141.6 meq/L
  PL: 142.6 mg/dL
  RALB: 3.5 g/dL
  TBIL: 0.2 mg/dL
  TC: 70.4 mg/dL
  TG: 96 mg/dL
  TP: 6.1 g/dL
  gamma-GTP: 0.8 IU/L
